# Laboratory results: patent US12480137B2, “Plants having increased tolerance to herbicides” (BASF SE, priority 2014, dated 2025)
# Experiments:
# Type in all cases: in vivo, Arabidopsis thaliana
# [1] = test system: Arabidopsis mutant line Cesa1_P1010L; assay: Growth inhibition of Arabidopsis lines in 48-well plates, tolerance factor from IC50; conditions: growth inhibition seven to ten days after seeding
# Text: (§1) For selection of cellulose biosynthesis inhibitor resistant plants EMS mutagenized seed populations of Arabidopsis thaliana are used. EMS mutagenized seed populations are either bought from Lehle Seeds (1102 South Industrial Blvd. Suite D, Round Rock, Texas USA) or are generated as described elsewhere (Heim D R, et. al. (1989) Plant Physiol. 90: 146-150). Causative mutations in CESA wildtype sequences (e.g. SEQ ID NO: 1 or 3) are identified as described by Scheible W R et. al. (2001, Proc. Natl. Acad. of Sci. 98: 10079-10084), McCourt et. al. (WO2013/142968) or with the use of next generation sequencing methods as described by Austin R S, et. al. (2011) Plant Journal 67: 715-725.
# (§2) Selected Arabidopsis thaliana lines were assayed for improved resistance to azines like 6-cyclopentyl-N4-(2,3,4,5,6-pentafluorophenyl)-1,3,5-triazine-2,4-diamine; 6-(1-fluoro-1-methyl-ethyl)-N4-(2,3,4,5,6-pentafluorophenyl)-1,3,5-triazine-2,4-diamine; 6-cyclohexyl-N2-(2,3,4,5,6-pentafluorophenyl)-1,3,5-triazine-2,4-diamine; 6-(2,6-difluorophenyl)-N2-(2,3,5,6-tetrafluorophenyl)-1,3,5-triazine-2,4-diamine; N2-(4-chloro-3,5,6-trifluoro-2-pyridyl)-6-(1-fluoro-1-methyl-ethyl)-1,3,5-triazine-2,4-diamine in 48-well plates. Therefore, M2 or M3 seeds are surface sterilized by stirring for 5 min in ethanol+water (70+30 by volume), rinsing one time with ethanol+water (70+30 by volume) and two times with sterile, deionized water. The seeds are resuspended in 0.1% agar dissolved in water (w/v) Four to five seeds per well are plated on solid nutrient medium consisting of half-strength murashige skoog nutrient solution, pH 5.8 (Murashige and Skoog (1962) Physiologia Plantarum 15: 473-497). Compounds are dissolved in dimethylsulfoxid (DMSO) and added to the medium prior solidification (final DMSO concentration 0.1%). Multi well plates are incubated in a growth chamber at 22° C., 75% relative humidity and 110 μmol Phot*m^−2*s^−1 with 14:10 h light:dark photoperiod. Growth inhibition is evaluated seven to ten days after seeding in comparison to wild type plants. Tolerance factors are calculated based on IC50 values of growth inhibition of transformed versus non-transformed Arabidopsis plants (Table 3).
# [2] = test system: Arabidopsis mutant line Cesa3_S1040L; assay: as above; conditions: growth inhibition seven to ten days after seeding
# Text: as §1, §2
# [3] = test system: Arabidopsis mutant line Cesa1_G1009D; assay: as above; conditions: growth inhibition seven to ten days after seeding
# Text: as §1, §2
# [4] = test system: Arabidopsis mutant line Cesa3_S983F; assay: as above; conditions: growth inhibition seven to ten days after seeding
# Text: as §1, §2
# [5] = test system: wildtype Arabidopsis plants; assay: as above; conditions: growth inhibition seven to ten days after seeding
# Text: as §1, §2
# [6] = test system: Arabidopsis mutant line Cesa3_S1037F; assay: as above; conditions: growth inhibition seven to ten days after seeding
# Text: as §1, §2
# [7] = test system: Arabidopsis mutant line Cesa1_G1013R; assay: as above; conditions: growth inhibition seven to ten days after seeding
# Text: as §1, §2
# [8] = test system: transgenic Arabidopsis plants, construct AtCESA3_S1037F; assay: Growth inhibition of transgenic Arabidopsis in 48-well plates, tolerance factor from IC50; conditions: SEQ ID NO 3, substitution S1037F, growth inhibition seven to ten days after seeding
# Text: (§3) For transformation of Arabidopsis thaliana, wildtype or mutated cellulose synthase sequences based on one of the following sequences SEQ ID NO: 72, 73, 74, 75, 76, or 77, are cloned with standard cloning techniques as described in Sambrook et al. (Molecular cloning (2001) Cold Spring Harbor Laboratory Press) in a binary vector containing resistance marker gene cassette (AHAS) and mutated cellulose synthase sequence (marked as GOI) in between ubiquitin promoter (PcUbi) and nopaline synthase terminator (NOS) sequence. Binary plasmids are introduced to Agrobacterium tumefaciens for plant transformation. Arabidopsis thaliana are transformed with wildtype or mutated cellulose synthase sequences by floral dip method as decribed by McElver and Singh (WO 2008/124495). Transgenic Arabidopsis plants are subjected to TaqMan analysis for analysis of the number of integration loci.
# (§4) Transgenic Arabidopsis thaliana plants are assayed for improved tolerance to azine herbicides like e. g. 6-cyclopentyl-N4-(2,3,4,5,6-pentafluorophenyl)-1,3,5-triazine-2,4-diamine in 48-well plates. Therefore, T2 seeds are surface sterilized by stirring for 5 min in ethanol+water (70+30 by volume), rinsing one time with ethanol+water (70+30 by volume) and two times with sterile, deionized water. The seeds are resuspended in 0.1% agar dissolved in water (w/v) Four to five seeds per well are plated on solid nutrient medium consisting of half-strength murashige skoog nutrient solution, pH 5.8 (Murashige and Skoog (1962) Physiologia Plantarum 15: 473-497). Compounds are dissolved in dimethylsulfoxid (DMSO) and added to the medium prior solidification (final DMSO concentration 0.1%). Multi well plates are incubated in a growth chamber at 22° C., 75% relative humidity and 110 μmol Phot*m^−2*s^−1 with 14:10 h light:dark photoperiod. Growth inhibition is evaluated seven to ten days after seeding in comparison to wild type plants. Tolerance factors are calculated based on IC50 values of growth inhibition of transformed versus non-transformed Arabidopsis plants.
# [9] = test system: transgenic Arabidopsis plants, construct AtCESA1_G1013R; assay: as above; conditions: SEQ ID NO 1, substitution G1013R, growth inhibition seven to ten days after seeding
# Text: as §3, §4
compound,measurement,setting,value
"Nc1nc(Nc2c(F)c(F)c(F)c(F)c2F)nc(C2CCCC2)n1 [6-cyclopentyl-N4-(2,3,4,5,6-pentafluorophenyl)-1,3,5-triazine-2,4-diamine]",Relative tolerance rate (wildtype = 1.0),[1],3
same,Relative tolerance rate (wildtype = 1.0),[2],56
same,Relative tolerance rate (wildtype = 1.0),[3],3
same,Relative tolerance rate (wildtype = 1.0),[4],75
same,Relative tolerance rate (wildtype = 1.0),[5],1
same,Relative tolerance rate (wildtype = 1.0),[6],75
same,Relative tolerance rate (wildtype = 1.0),[7],25
same,Relative tolerance rate (non-transgenic = 1.0),[8],17
same,Relative tolerance rate (non-transgenic = 1.0),[9],3
